In US10323022B2, “Pyrrolidinyl urea, pyrrolidinyl thiourea and pyrrolidinyl guanidine compounds as TrkA kinase inhibitors” (Array BioPharma Inc., priority 2011, dated 2019):

These compounds were tested against TrkA (Homo sapiens (Human), UniProt P04629) (assay: TrkA Omnia Assay). Details: averaged IC50; 20 nM enzyme, 500 μM ATP, 10 μM peptide substrate.
Type: biochemical
Protocol: Trk enzymatic selectivity was assessed using Omnia™ Kinase Assay reagents from Invitrogen Corp. Enzyme (TrkA from Invitrogen Corp.) and test compound (various concentrations) were incubated for 10 minutes at ambient temperature in a 384-well white polypropylene plate (Nunc catalog#267462). Omnia Tyr Peptide #4, as well as ATP, were then added to the plate. Final concentrations were as follows: 20 nM enzyme, 500 μM of ATP, 10 μM peptide substrate. The assay buffer consisted of 25 mM MOPS pH 7.5, 0.005% (v/v) Triton X-100 and 5 mM MgCl2. The production of phosphorylated peptide was monitored continuously for 70 minutes using a Molecular Devices FlexStation II^384 microplate reader (excitation=360 nm; emission=485 nm). Initial rates were calculated from the progress curves. IC50 values were calculated from these rates using either a 4 or 5-parameter logistic curve fit.

TrkA, sequence (P04629 33-796): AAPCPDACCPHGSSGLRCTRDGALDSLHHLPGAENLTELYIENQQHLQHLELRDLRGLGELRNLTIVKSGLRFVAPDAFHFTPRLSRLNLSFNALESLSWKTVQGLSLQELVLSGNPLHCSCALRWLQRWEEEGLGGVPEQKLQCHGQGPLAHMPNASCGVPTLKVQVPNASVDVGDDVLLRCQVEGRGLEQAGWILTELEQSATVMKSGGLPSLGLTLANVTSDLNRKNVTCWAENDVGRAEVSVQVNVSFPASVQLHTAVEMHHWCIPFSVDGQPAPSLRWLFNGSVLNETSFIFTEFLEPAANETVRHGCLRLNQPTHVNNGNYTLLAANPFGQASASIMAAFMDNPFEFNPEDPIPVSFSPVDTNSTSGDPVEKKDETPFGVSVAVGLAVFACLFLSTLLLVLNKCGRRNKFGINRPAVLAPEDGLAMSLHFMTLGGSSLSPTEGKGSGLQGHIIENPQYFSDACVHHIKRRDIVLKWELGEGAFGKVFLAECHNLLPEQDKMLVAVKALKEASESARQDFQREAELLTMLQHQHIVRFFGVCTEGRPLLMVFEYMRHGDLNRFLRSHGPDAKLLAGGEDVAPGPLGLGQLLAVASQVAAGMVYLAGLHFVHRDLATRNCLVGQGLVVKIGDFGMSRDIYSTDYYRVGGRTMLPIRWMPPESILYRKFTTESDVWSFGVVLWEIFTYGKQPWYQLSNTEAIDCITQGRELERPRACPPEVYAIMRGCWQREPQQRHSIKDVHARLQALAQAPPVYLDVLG

| Compound | IC50 |
| --- | --- |
| O=C(Nc1c2c(nn1-c1ccccc1)CCC2)N[C@@H]1CN(CC(F)(F)F)C[C@H]1c1ccccc1F (relative stereo) [Example 214, 1-((trans)-4-(2-fluorophenyl)-1-(2,2,2-trifluoroethyl)pyrrolidin-3-yl)-3-(2-phenyl-2,4,5,6-tetrahydrocyclopenta[c]pyrazol-3-yl)urea] | < 100 nM |
| CNCCN1C[C@@H](NC(=O)Nc2c3c(nn2-c2ccccc2)CCC3)[C@H](c2ccc(F)cc2)C1 (relative stereo) [Example 256, 1-((trans)-4-(4-fluorophenyl)-1-(2-(methylamino)ethyl)pyrrolidin-3-yl)-3-(2-phenyl-2,4,5,6-tetrahydrocyclopenta[c]pyrazol-3-yl)urea] | 100 to 1000 nM |
| O=C(Nc1c2c(nn1-c1ccccc1)CCC2)N[C@@H]1CN(Cc2ncc[nH]2)C[C@H]1c1ccccc1 (relative stereo) [Example 257, 1-((trans)-1-((1H-imidazol-2-yl)methyl)-4-phenylpyrrolidin-3-yl)-3-(2-phenyl-2,4,5,6-tetrahydrocyclopenta[c]pyrazol-3-yl)urea] | 100 to 1000 nM |
| COCCN1C[C@@H](NC(=O)Nc2c(C)c(-c3cnn(C)c3)nn2-c2ccccc2)[C@H](c2ccc(F)c(Cl)c2)C1 (relative stereo) [Example 293, 1-(trans-4-(3-chloro-4-fluorophenyl)-1-(2-methoxyethyl)pyrrolidin-3-yl)-3-(1′,4-dimethyl-1-phenyl-1H,1′H-[3,4′-bipyrazol]-5-yl)urea] | < 100 nM |
| COCCN1C[C@@H](NC(=O)Nc2c(C)c(-c3cnn(C)c3)nn2-c2ccccc2)[C@H](c2ccc(Cl)c(F)c2)C1 (relative stereo) [Example 294, 1-(trans-4-(4-chloro-3-fluorophenyl)-1-(2-methoxyethyl)pyrrolidin-3-yl)-3-(1′,4-dimethyl-1-phenyl-1H,1′H-[3,4′-bipyrazol]-5-yl)urea] | < 100 nM |
| COCCN1C[C@@H](NC(=O)Nc2c(C)c(-c3cnn(C)c3)nn2-c2ccccc2)[C@H](c2cc(F)cc(Cl)c2)C1 (relative stereo) [Example 295, 1-(trans-4-(3-chloro-5-fluorophenyl)-1-(2-methoxyethyl)pyrrolidin-3-yl)-3-(1′,4-dimethyl-1-phenyl-1H,1′H-[3,4′-bipyrazol]-5-yl)urea] | < 100 nM |
| COCCN1C[C@@H](NC(=O)Nc2c(C)c(-c3cnn(C)c3)nn2-c2ccccc2)[C@H](c2cccc(Cl)c2)C1 (relative stereo) [Example 296, 1-(trans-4-(3-chlorophenyl)-1-(2-methoxyethyl)pyrrolidin-3-yl)-3-(1′,4-dimethyl-1-phenyl-1H,1′H-[3,4′-bipyrazol]-5-yl)urea] | < 100 nM |
| CNC(=O)c1nn(-c2ccccc2)c(NC(=O)N[C@@H]2CN(CCOC)C[C@H]2c2ccc(F)c(Cl)c2)c1C (relative stereo) [Example 301, 5-(3-(trans-4-(3-chloro-4-fluorophenyl)-1-(2-methoxyethyl)pyrrolidin-3-yl)ureido)-N,4-dimethyl-1-phenyl-1H-pyrazole-3-carboxamide] | < 100 nM |
| CNC(=O)c1nn(-c2ccccc2)c(NC(=O)N[C@@H]2CN(CCOC)C[C@H]2c2ccc(Cl)c(F)c2)c1C (relative stereo) [Example 302, 5-(3-(trans-4-(4-chloro-3-fluorophenyl)-1-(2-methoxyethyl)pyrrolidin-3-yl)ureido)-N,4-dimethyl-1-phenyl-1H-pyrazole-3-carboxamide] | < 100 nM |
| COCCN1C[C@@H](NC(=O)Nc2c3c(nn2-c2ccccc2)CCC3)[C@H](c2nccs2)C1 (stereo in doubt) [Example 49, 1-(1-(2-methoxyethyl)-4-(thiazol-2-yl)pyrrolidin-3-yl)-3-(2-phenyl-2,4,5,6-tetrahydrocyclopenta[c]pyrazol-3-yl)urea] | 1000 to 10000 nM |

Continued, values first:

| IC50 | Compound |
| --- | --- |
| < 100 nM | COCCN1C[C@@H](NC(=O)Nc2c(C)c(-c3ccn(C)c(=O)c3)nn2-c2ccccc2)[C@H](c2ccc(Cl)c(F)c2)C1 (relative stereo) [Example 303, 1-(trans-4-(4-chloro-3-fluorophenyl)-1-(2-methoxyethyl)pyrrolidin-3-yl)-3-(4-methyl-3-(1-methyl-2-oxo-1,2-dihydropyridin-4-yl)-1-phenyl-1H-pyrazol-5-yl)urea] |
| < 100 nM | COCCN1C[C@@H](NC(=O)Nc2c(C)c(-c3ccn(C)c(=O)c3)nn2-c2ccccc2)[C@H](c2ccc(F)c(Cl)c2)C1 (relative stereo) [Example 304, 1-(trans-4-(3-chloro-4-fluorophenyl)-1-(2-methoxyethyl)pyrrolidin-3-yl)-3-(4-methyl-3-(1-methyl-2-oxo-1,2-dihydropyridin-4-yl)-1-phenyl-1H-pyrazol-5-yl)urea] |
| 100 to 1000 nM | COCCN1C[C@@H](NC(=O)Nc2c(C)c(-c3cnn(C)c3)nn2-c2ccccc2)[C@H](c2cnn(C)c2)C1 (relative stereo) [Example 333, 1-(1′,4-dimethyl-1-phenyl-1H,1'H-[3,4′-bipyrazol]-5-yl)-3-(trans-1-(2-methoxyethyl)-4-(1-methyl-1H-pyrazol-4-yl)pyrrolidin-3-yl)urea] |
| < 100 nM | CCOc1nn(-c2ccccc2)c(NC(=O)N[C@@H]2CN(CCOC)C[C@H]2c2cccc(C(F)(F)F)c2)c1C (relative stereo) [Example 335, 1-(3-ethoxy-4-methyl-1-phenyl-1H-pyrazol-5-yl)-3-(trans-1-(2-methoxyethyl)-4-(3-(trifluoromethyl)phenyl)pyrrolidin-3-yl)urea] |
| 100 to 1000 nM | COCCN1C[C@@H](NC(=O)Nc2c3c(nn2-c2ccccc2)CCC3)[C@H](c2cncc(F)c2)C1 (relative stereo) [Example 341, 1-(trans-4-(5-fluoropyridin-3-yl)-1-(2-methoxyethyl)pyrrolidin-3-yl)-3-(2-phenyl-2,4,5,6-tetrahydrocyclopenta[c]pyrazol-3-yl)urea] |
| < 100 nM | COCCN1C[C@@H](NC(=O)Nc2c(C)c(C)nn2-c2ccccc2)[C@H](c2cncc(Cl)c2)C1 (relative stereo) [Example 343, 1-(trans-4-(5-chloropyridin-3-yl)-1-(2-methoxyethyl)pyrrolidin-3-yl)-3-(3,4-dimethyl-1-phenyl-1H-pyrazol-5-yl)urea] |
| < 100 nM | COCCN1C[C@@H](NC(=O)Nc2c(C)c(-c3ccccc3)nn2-c2ccccc2)[C@H](c2cncc(F)c2)C1 (relative stereo) [Example 344, 1-(trans-4-(5-fluoropyridin-3-yl)-1-(2-methoxyethyl)pyrrolidin-3-yl)-3-(4-methyl-1,3-diphenyl-1H-pyrazol-5-yl)urea] |
| < 100 nM | COCCN1C[C@@H](NC(=O)Nc2c(Br)c(-c3ccccc3)nn2-c2ccccc2)[C@H](c2cncc(F)c2)C1 (relative stereo) [Example 435, 1-(4-bromo-1,3-diphenyl-1H-pyrazol-5-yl)-3-(trans-4-(5-fluoropyridin-3-yl)-1-(2-methoxyethyl)pyrrolidin-3-yl)urea] |
| < 100 nM | COCCN1C[C@@H](NC(=O)Nc2c(Cl)c(-c3ccccc3)nn2-c2ccccc2)[C@H](c2cncc(F)c2)C1 (relative stereo) [Example 436, 1-(4-chloro-1,3-diphenyl-1H-pyrazol-5-yl)-3-(trans-4-(5-fluoropyridin-3-yl)-1-(2-methoxyethyl)pyrrolidin-3-yl)urea] |
| < 100 nM | COCCN1C[C@@H](NC(=O)Nc2c(C)c(=O)[nH]n2-c2ccccc2)[C@H](c2ccc(Cl)c(F)c2)C1 (relative stereo) [Example 609, 1-((trans)-4-(4-chloro-3-fluorophenyl)-1-(2-methoxyethyl)pyrrolidin-3-yl)-3-(4-methyl-5-oxo-2-phenyl-2,5-dihydro-1H-pyrazol-3-yl)urea] |
| < 100 nM | COCCN1C[C@@H](NC(=O)Nc2c(C)c(=O)[nH]n2-c2ccccc2)[C@H](c2ccc(F)c(Cl)c2)C1 (relative stereo) [Example 610, 1-((trans)-4-(3-chloro-4-fluorophenyl)-1-(2-methoxyethyl)pyrrolidin-3-yl)-3-(4-methyl-5-oxo-2-phenyl-2,5-dihydro-1H-pyrazol-3-yl)urea] |
| < 100 nM | COCCN1C[C@@H](NC(=O)Nc2c(C)c(=O)[nH]n2-c2ccccc2)[C@H](c2cc(F)cc(Cl)c2)C1 (relative stereo) [Example 614, 1-((trans)-4-(3-chloro-5-fluorophenyl)-1-(2-methoxyethyl)pyrrolidin-3-yl)-3-(4-methyl-5-oxo-2-phenyl-2,5-dihydro-1H-pyrazol-3-yl)urea] |
| < 100 nM | COCCN1C[C@@H](NC(=O)Nc2c(C(N)=O)c(C)nn2-c2ccccc2)[C@H](c2ccc(F)c(Cl)c2)C1 (relative stereo) [Example 623, 5-(3-((trans)-4-(3-chloro-4-fluorophenyl)-1-(2-methoxyethyl)pyrrolidin-3-yl)ureido)-3-methyl-1-phenyl-1H-pyrazole-4-carboxamide] |
| < 100 nM | COCCN1C[C@@H](NC(=O)Nc2c(C(N)=O)c(C)nn2-c2ccccc2)[C@H](c2ccc(Cl)c(F)c2)C1 (relative stereo) [Example 624, 5-(3-((trans)-4-(4-chloro-3-fluorophenyl)-1-(2-methoxyethyl)pyrrolidin-3-yl)ureido)-3-methyl-1-phenyl-1H-pyrazole-4-carboxamide] |
| < 100 nM | COCCN1C[C@@H](NC(=O)Nc2c(C(N)=O)c(C)nn2-c2ccccc2)[C@H](c2cc(F)cc(Cl)c2)C1 (relative stereo) [Example 625, 5-(3-((trans)-4-(3-chloro-5-fluorophenyl)-1-(2-methoxyethyl)pyrrolidin-3-yl)ureido)-3-methyl-1-phenyl-1H-pyrazole-4-carboxamide] |
